Common to all, as to test: NCI tumour cell line growth inhibition, 48 h
Assay [1] has as its system SR leukemia.
In assay [2] the test system is NCI-H226 lung.
Assay [3] concerns UO-31 renal.
The test system of assay [4] is COLO 205 colon.
The test system of assay [5] is HCT-116 colon.
In assay [6] the test system is SF-295 CNS.
For assay [7], the system named is CAKI-1 renal.
Assay [8] deals with HOP-92 NSCLC.
Assay [9] deals with TK-10 renal.
The subject of assay [10] is SW-620 colon.

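Assay format: 96-well plates, 48-hour exposure. GI50 = concentration required for 50% inhibition of growth. TGI is the concentration that stops growth completely.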

As to `Cc1c(C(=O)/C=C/c2ccccc2)[n+](=O)c2ccccc2n1[O-]`, the TGI in assay [1] is 66 µM; in [2], 39.2 µM; in assay [3], 34.2 µM; in [4], 29.8 µM; in [5], 32.4 µM; in [6], 31.5 µM. Besides, the TGI turned out to be 45.7 µM in assay [7], 28 µM in assay [8], 51.1 µM in assay [9] and 28.3 µM in assay [10].
As for `CC(C)C[C@H](NC(=O)/C=C/Cn1ccc2ccccc2c1=O)B(O)O`, the GI50 in assay [1] was 0.887 µM; in [2], 1.76 µM; in assay [3] it was 9.45 µM; in assay [4], 5.93 µM; in [5], 2.95 µM; in assay [6] it was 2.75 µM. Further, the GI50 in assay [7] is 4.95 µM; in assay [8], 6.49 µM; in assay [9], 3.27 µM; in assay [10] it was 3.55 µM. Moreover, the TGI in assay [1] is 21.8 µM; in assay [2] it was 3.63 µM; in assay [3] it was above 100 µM; in assay [4], above 100 µM; in assay [5] it was 12.6 µM; in [6], 15.1 µM. The TGI was above 100 µM in assay [7], 30.4 µM in assay [8], 10.4 µM in assay [9] and above 100 µM in assay [10].
As to `Cc1ccc2[nH]c(O)c(N=Nc3ccc(S(N)(=O)=O)cc3)c2c1`, the GI50 is 7.23 µM in [1]; 7.92 µM in assay [2]; 12.7 µM in [3]; above 24.2 µM in assay [4]; 8.87 µM in [5]; above 14.9 µM in assay [6]. The GI50 in assay [7] was 17.8 µM; in assay [8], above 25 µM; in assay [9] it was 10.1 µM; in assay [10], 10.2 µM. Moreover, the TGI in assay [1], in assay [2], in [3], in assay [4], in [5] and in [6] was above 25 µM throughout. Further, the TGI in assay [7], in assay [8], in [9] and in assay [10] was above 25 µM each time.
In the case of `COc1cc2[nH]c(C(=O)c3cc(OC)c(OC)c(OC)c3)c(N)c2cc1C#CC1CC1`, the GI50 is 0.976 µM in [1]; 22.4 µM in assay [2]; 2.6 µM in assay [3]; 2.4 µM in assay [4]; 2.06 µM in assay [5]; 1.66 µM in assay [6]. Further, the GI50 is 2.54 µM in [7], 0.622 µM in assay [8], 40 µM in assay [9] and 2.9 µM in [10]. Besides, the TGI in assay [1] is above 100 µM; in assay [2] it was above 100 µM; in assay [3], above 100 µM; in assay [4] it was 8.34 µM; in assay [5], 85.3 µM; in [6], above 100 µM. In addition, the TGI in assay [7] is above 100 µM; in assay [8], 94.5 µM; in assay [9], above 100 µM; in assay [10], above 100 µM.
Take `CC(C)(C[C@H]1CN(S(=O)(=O)c2cccc(C(F)(F)F)c2)c2cc(-c3cc(F)cc(OC(F)F)c3)ccc2O1)C(=O)O`: the GI50 was 3.29 µM in assay [1]; 15.2 µM in [2]; 10.8 µM in assay [3]; 11.3 µM in assay [4]; 4.01 µM in [5]; 4.12 µM in assay [6]. Also, the GI50 in assay [7] is 10.5 µM; in [8], 3.1 µM; in assay [9], 9.07 µM; in assay [10], 5.02 µM. Moreover, the TGI in assay [1] is 23.8 µM; in assay [2], 56 µM; in [3] it was 23.4 µM; in assay [4] it was 32.7 µM; in assay [5] it was 15.8 µM; in assay [6] it was 18.5 µM. Besides, the TGI in assay [7] turned out to be 24.4 µM; in assay [8], 16.8 µM; in [9], 27.6 µM; in [10] it was 21.5 µM.
Consider `N#Cc1cccnc1Cl`, for which the TGI in assay [1], in assay [2], in assay [3], in assay [4], in [5] and in assay [6] was above 100 µM in each case. Further, the TGI in [7], in assay [8], in assay [9] and in assay [10] was above 100 µM throughout.
With `CCOC(=O)c1ccc(C)c(N=NN(C)C)c1`, the TGI in assay [1], in [2], in assay [3], in assay [4], in [5] and in assay [6] was above 100 µM in each case. In addition, the TGI in assay [7], in assay [8], in [9] and in assay [10] was above 100 µM in each case.
Consider `Nc1ccn(C2CCC(CO)O2)c(=O)n1` (stereo not given), for which the TGI in [1], in assay [2], in [3], in [4], in assay [5] and in [6] was above 1000 µM throughout. Moreover, the TGI in assay [7], in assay [8], in assay [9] and in assay [10] was above 1000 µM each time. In addition, the GI50 in assay [2], in assay [4], in assay [5], in assay [6], in assay [7] and in assay [8] was above 1000 µM throughout. Moreover, the GI50 in assay [10] was above 1000 µM.
With `O=C(Nc1c(Cl)cc([N+](=O)[O-])cc1Cl)C(=O)C(C1OC(=O)c2ccccc21)[N+](=O)[O-]` (stereo not given), the TGI in assay [1], in assay [2], in assay [3], in assay [4], in assay [5] and in assay [6] was above 100 µM each time. The TGI in assay [7] is above 100 µM; in assay [8], 99.1 µM; in assay [9], above 100 µM; in [10], above 100 µM.
Take `CC1(C)[C@@H](OC(N)=O)[C@H]2O[C@H]2[C@]2(C=O)[C@H]3CC[C@]4(C)[C@@H](c5ccc(=O)oc5)[C@@H](Cl)C[C@]4(O)C3=CC[C@@H]12`: the GI50 in assay [1] is 0.00617 µM; in assay [2], 0.00432 µM; in assay [3] it was 0.00572 µM; in [4] it was 0.00731 µM; in assay [5], 0.00435 µM; in assay [6], 0.00522 µM. Moreover, the GI50 in [7] was 0.00448 µM; in [8], 0.00616 µM; in [9] it was 0.00551 µM; in assay [10], 0.00529 µM. Also, the TGI in assay [1] was 0.0185 µM; in assay [2], 0.00811 µM; in assay [3], 0.0163 µM; in assay [4] it was 0.0199 µM; in assay [5], 0.00853 µM; in assay [6], 0.0118 µM. Further, the TGI in assay [7] was determined as 0.00859 µM; in [8], 0.0198 µM; in assay [9] it was 0.0123 µM; in [10] it was 0.0115 µM.
Consider `O=C1CCCC[C@H]1[C@H]1CCC[C@@H]([C@H]2CCCCC2=O)C1=O`, for which the TGI in assay [1], in assay [2], in assay [3], in [4], in [5] and in assay [6] was above 100 µM in each case. The TGI in [7], in assay [8], in assay [9] and in assay [10] was above 100 µM throughout.
For `C=C1CCC(CC[C@@H]2CC[C@]3(OC2)O[C@@]2(O)CC[C@]3(C)OC2(C)C)C(C)(C)[C@H]1C/C=C1/C(=O)OC[C@@H]1O` (stereo not given in full), the TGI in [1] is above 100 µM; in assay [2], 6.94 µM; in assay [3] it was 9.33 µM; in assay [4] it was 16.3 µM; in [5] it was 4.89 µM; in assay [6], 10.5 µM. Moreover, the TGI in assay [7] was found to be 16.5 µM; in assay [8] it was 6.51 µM; in [9], 11.5 µM; in assay [10], 12.6 µM.
In the case of `Cc1[nH]c2ccccc2c(=O)c1CC=C(Cl)Cl`, the GI50 is 58.1 µM in assay [1]; 25.9 µM in assay [2]; 42.8 µM in assay [3]; above 100 µM in [4]; 45.3 µM in [5]; 32 µM in assay [6]. Further, the GI50 in assay [7] was 63.9 µM; in [8], 15 µM; in assay [9] it was 25.5 µM; in assay [10], above 100 µM. Further, the TGI in [1], in assay [2], in assay [3], in assay [4], in assay [5] and in assay [6] was above 100 µM in each case. The TGI in assay [7] was above 100 µM; in assay [8], 70.3 µM; in assay [9] it was 99.3 µM; in [10], above 100 µM.
Take `O=c1c2ccccc2c(=O)c2c1[nH]c1c(-c3ccccc3)c(-c3ccccc3)c(=O)c12`: the GI50 was 2.15 µM in [1]; 3.56 µM in assay [2]; 1.75 µM in [3]; 3.94 µM in assay [4]; 2.31 µM in [5]; 2.34 µM in assay [6]. Further, the GI50 in assay [7] is 1.93 µM; in [8] it was 3.23 µM; in assay [9], 4.84 µM; in [10], 3.85 µM. For the same molecule, the TGI in [1] amounted to 13.5 µM; in assay [2], 44.5 µM; in [3], 5.55 µM; in [4], 13.1 µM; in assay [5] it was 4.87 µM; in [6], 6.24 µM. Also, the TGI turned out to be 4.99 µM in assay [7], 12.7 µM in assay [8], 52.3 µM in assay [9] and 14.1 µM in [10].
As for `S=C1OC2CCCC[C@H]2O1` (stereo not given in full), the TGI in [1], in [2], in assay [3], in [4], in assay [5] and in assay [6] was above 100 µM each time. The TGI in [7], in assay [8], in assay [9] and in assay [10] was above 100 µM throughout.
On to `COc1cc(C(=O)c2cc(C)c3[nH]c4ccc(C)cc4c3c2C)cc(OC)c1OC`, for which the GI50 in assay [1], in assay [2], in assay [3], in assay [4], in assay [5] and in [6] was below 0.01 µM each time. Also, the GI50 in assay [7] was below 0.01 µM; in [8], below 0.01 µM; in assay [9], 3.37 µM; in assay [10], below 0.01 µM. For the same molecule, the TGI in assay [1] is above 100 µM; in assay [2], above 100 µM; in [3] it was above 100 µM; in assay [4] it was 0.0369 µM; in assay [7] it was above 40.5 µM; in assay [8] it was 5.86 µM. Moreover, the TGI in [9] and in assay [10] was above 100 µM each time.
For the molecule `O=C1CC2CCCC23CC2(CCN13)OCCO2` (stereo not given), the TGI in [1], in [2], in [3], in assay [4], in assay [5] and in [6] was above 100 µM throughout. Further, the TGI in assay [7], in [8], in assay [9] and in assay [10] was above 100 µM throughout.
`C#Cc1c(I)n(C2OC(CO[Si](C)(C)C(C)(C)C)C3OC(C)(C)OC32)c(=O)[nH]c1=O` (stereo not given): the GI50 in [1] is 2.62 µM; in assay [2], 17.7 µM; in assay [3], 1.99 µM; in [4], 2.24 µM; in assay [5] it was 2.78 µM; in [6], 28.4 µM. Also, the GI50 in [7] was 11.6 µM; in assay [8] it was 12.4 µM; in assay [9], 11.2 µM; in [10], 2.36 µM. For the same molecule, the TGI in [1] is 12.8 µM; in assay [2], 32.5 µM; in assay [3] it was 5.49 µM; in [4], 4.8 µM; in assay [5], 10.1 µM; in assay [6], 98.7 µM. Besides, the TGI in assay [7] was 24.8 µM; in assay [8], 26.1 µM; in assay [9] it was 26.5 µM; in assay [10], 6.42 µM.
As for `COc1cc(/C=C/c2ccc(OC)c(OC)c2)cc(OC)c1`, the TGI in assay [1] is above 100 µM; in assay [2], 74.4 µM; in assay [3], 83.1 µM; in assay [4], 39.7 µM; in [5], above 100 µM; in assay [6] it was 68.9 µM. Also, the TGI in [7] is 94.1 µM; in assay [8] it was above 100 µM; in assay [9] it was above 100 µM; in [10], above 100 µM.

Source of the values: PubChem BioAssay (NCI).
